Test results taken from patent US20230089506A1, “Herbicide Combinations Comprising Glufosinate and Fluthiacet-Methyl” (BASF SE, priority 2020, published 2023).

Columns and labels:
[1] = test system: Conyza canadiensis (ERICA); test: Greenhouse post-emergence weed control, percent injury vs untreated control; assay type: in vivo; conditions: 504 h
Method: (§1) Glufosinate was used as a commercial SL formulation containing 280 g ai/l of glufosinate (Liberty 280 SL, BASF). While the PPO herbicide Cadet containing 109 g ai/l fluthiacet-methyl was used (Cadet, FMC) formulation. • The evaluation for plant injury or damage caused by the chemical compositions was carried out using a scale from 0-100% when compared with the untreated control plants. Here, 0 means no damage and 100 means complete destruction of the plants.
(§2) 22., E=X+Y−(X*Y/100), where • X=effect in percent using herbicide A at an application rate of a; • Y=effect in percent using herbicide B at an application rate of b; • E=expected effect (in %) of A+B at application rates a+b.
(§3) The value E corresponds to the effect (plant damage or injury) which is to be expected if the activity of the individual compounds is just additive. If the observed effect is higher than the value E calculated according to Colby, a synergistic effect is present.
(§4) Seedlings of marestail (Conyza canadiensis; ERICA) and barnyardgrass (Echinochloa crusgalli; ECHCG) were treated with postemergence applications of either glufosinate at 246 g ai/ha, fluthiacet-methyl at 0.72 g ai/ha, or the combination of glufosinate (246 g ai/ha) and fluthiacet-methyl (0.72 g ai/ha), respectively, when they were 5-10 cm in height. All glufosinate treatments contained 1% (w/v) ammonium sulfate and solo fluthiacet-methyl treatments contained 1% (w/v) ammonium sulfate plus 1% (v/v) MSO surfactant. Plants were placed in a completely randomized design with four replications per treatment. Percent injury data was collected 21 days after treatment (DAT).

[2] = test system: Echinochloa crus-galli (ECHCG); test: as above; assay type: in vivo; conditions: 504 h
Method: as §1, §2, §3, §4

[3] = read-out: % activity, Solo Glufosinate (246 g ai/ha)

| Structure (SMILES) | inhibition at 246 g/ha [1, 3] [%] | inhibition at 246 g/ha [2, 3] [%] | inhibition at 0.72 g/ha ([1]; ERICA seedlings 5-10 cm, postemergence, 0.72 g ai/ha, 21 DAT, 1% ammonium sulfate plus 1% MSO, scale 0-100%, read-out: % activity, Solo Fluthiacet-methyl (0.72 g ai/ha)) [%] | inhibition at 0.72 g/ha ([2]; ECHCG seedlings 5-10 cm, postemergence, 0.72 g ai/ha, 21 DAT, 1% ammonium sulfate plus 1% MSO, scale 0-100%, read-out: % activity, Solo Fluthiacet-methyl (0.72 g ai/ha)) [%] |
| --- | --- | --- | --- | --- |
| CP(=O)(O)CCC(N)C(=O)O (racemic) [Glufosinate, (2RS)-2-amino-4-[hydroxy(methyl)phosphinoyl]butyric acid] | 58 | 53 | – | – |
| COC(=O)CSc1cc(/N=c2\sc(=O)n3n2CCCC3)c(F)cc1Cl [Fluthiacet-methyl, fluthiacet-methyl] | – | – | 23 | 20 |
